The results in this text go back to patent US5733719A, “Method of making an assay compound” (priority 1995, dated 1998).

Numbered stars: 1 amine (or outer) side, 2 acyl side, 3 side chain; on linkers, the order of the positions; unused ones are H or OH. Bridge positions count the residues as written; N and C are the ends. Peptide text beside a SMILES is read from it. I, II: the chains in the order shown. Rhodamine110 = O=C1OC2(c3ccc(N[*:1])cc3Oc3cc(N[*:2])ccc32)c2ccccc21

In one experiment the test system is enzyme. As to the kind of experiment: Effect of dithioerythritol (DTE) on substrate sensitivity. As to conditions: dithioerythritol (DTE) at 1 mM. The text has this: Modulators are components used to […] the sensitivity of the enzyme for the leaving group. The modulators speed up or slow down the activity of an enzyme by changing the active site. […] Preferred modulators for particular enzymes are included in Table 1.

For a further experiment, the system named is Lymphs. The experiment is described as follows: Peptidases to distinguish leukemia from non-leukemia, lymphocytes. On the set-up: unit not given here. Type of experiment: cell-based, human. The text has this: (§1) Artificial intelligence was used to analyze data of cellular enzyme functions, and determine normal and disease states. Peptidases were used to distinguish leukemia from non-leukemia (output pattern). For input patterns lymphocyte and granulocyte cell types were used with aminopeptidases, cathepsins and dipeptidylpeptidase enzyme activities. In this Example, illustrated in Tables 6A-6C, three normals and three leukemia patients were used as known output patterns for the neural network to learn (in practice, the larger the learning set the more accurate unknown prediction will be). Unknowns were then presented to the learned algorithm as shown in the test case examples. Clinical diagnosis was confirmed by physicians. The trained neural network was able to correctly classify the leukemia from the non-leukemia.

Another experiment relates to Grans. As to the kind of experiment: Peptidases to distinguish leukemia from non-leukemia, granulocytes. Type of experiment: cell-based, human. The arrangement: unit not given here.
Excerpt: as §1

Turning to `NC(=O)CC[C@H](N)C(=O)N[C@@H](CO)C(=O)Nc1ccc2c(c1)Oc1cc(NC(=O)[C@H](CO)NC(=O)[C@@H](N)CCC(N)=O)ccc1C21OC(=O)c2ccccc21` (relative stereo) [GLN-SER*], the “effect of DTE on sensitivity” value with enzyme is listed as “decreases the sensitivity”.
`C[C@H](N)C(=O)N[C@@H](C)C(=O)Nc1ccc2c(c1)Oc1cc(NC(=O)[C@H](C)NC(=O)[C@H](C)N)ccc1C21OC(=O)c2ccccc21` [ALA-ALA*]: the “effect of DTE on sensitivity” value in the experiment with enzyme was “decreases the sensitivity”.
Regarding `C[C@H](N)C(=O)N[C@@H](C)C(=O)N[C@@H](C)C(=O)N[C@@H](C)C(=O)Nc1ccc2c(c1)Oc1cc(NC(=O)[C@H](C)NC(=O)[C@H](C)NC(=O)[C@H](C)NC(=O)[C@H](C)N)ccc1C21OC(=O)c2ccccc21` [Ala-Ala-Ala-Ala, (H--L Ala--Ala--Ala--Ala)2 Rho 110-2TFA] (I: H-AAAA / II: H-AAAA; linker I:C-II:C via Rhodamine110), the “effect of DTE on sensitivity” value in the experiment with enzyme is “decreases the sensitivity”.
For `C[C@H](N)C(=O)NCC(=O)Nc1ccc2c(c1)Oc1cc(NC(=O)CNC(=O)[C@H](C)N)ccc1C21OC(=O)c2ccccc21` [Ala-Gly], the “effect of DTE on sensitivity” value in the experiment with enzyme is on record as “does not change the sensitivity”.
Consider `NCC(=O)Nc1ccc2c(c1)Oc1cc(NC(=O)CN)ccc1C21OC(=O)c2ccccc21` [GLY, (Gly)2 Rho 110], for which the “effect of DTE on sensitivity” value with enzyme is on record as “decreases the sensitivity”. The enzyme activity with Lymphs (J4 11/21/91 acute leuk.) turned out to be 14.02; with Lymphs (J4 12/2/91 AL), 27.32; in the experiment on Lymphs (J4 12/3/91 acute leuk.), 31.51; in the experiment on Lymphs (J5 11/27/91 AML) it was 28.36; in the experiment on Lymphs (J19 11/27/91 CLL) it was 11.39; in the experiment with Lymphs (J22 12/2/91 AML), 24.50. Besides, the enzyme activity turned out to be 27.14 in the experiment with Lymphs (J22 12/9/91 AML); 30.68 with Lymphs (N99° normal); 43.57 in the experiment with Lymphs (N191 normal); 37.47 in the experiment on Lymphs (N192 normal); 39.30 in the experiment on Lymphs (N193 normal); 39.76 with Lymphs (N194 normal). The enzyme activity in the experiment on Lymphs (N195 normal) is on record as 48.18; in the experiment on Lymphs (N197 normal), 42.96; in the experiment on Lymphs (N200 normal) it was 42.28; in the experiment on Lymphs (N201 normal), 45.32; with Lymphs (N202 normal), 44.55; in the experiment on Lymphs (N206 normal), 55.56. The enzyme activity in the experiment on Lymphs (P68 tachycardia) is recorded as 59.29; with Lymphs (P69 pancreatic CA), 67.38; with Lymphs (P70 cirrhosis/hemobilia) it was 54.84; in the experiment on Lymphs (P71 ac. pyelonephritis), 41.93; in the experiment on Grans (J4 11/21/91 acute leuk.), 27.79; in the experiment with Grans (J4 12/2/91 AL), 47.74. For the same compound, the enzyme activity in the experiment with Grans (J4 12/3/91 acute leuk.) was 48.53; in the experiment with Grans (J5 11/27/91 AML), 56.33; with Grans (J19 11/27/91 CLL), 48.80; in the experiment on Grans (J22 12/2/91 AML), 34.02; in the experiment with Grans (J22 12/9/91 AML), 38.47; in the experiment with Grans (N99° normal) it was 45.00. Also, the enzyme activity in the experiment on Grans (N191 normal) is recorded as 73.20; with Grans (N192 normal), 43.67; in the experiment with Grans (N193 normal), 63.33; in the experiment on Grans (N194 normal) it was 60.30; with Grans (N195 normal), 79.13; with Grans (N197 normal) it was 76.88. In addition, the enzyme activity in the experiment on Grans (N200 normal) was found to be 59.39; in the experiment on Grans (N201 normal), 75.48; in the experiment with Grans (N202 normal), 66.22; with Grans (N206 normal), 91.93; with Grans (P68 tachycardia), 100.00; with Grans (P69 pancreatic CA), 88.04. Besides, the enzyme activity in the experiment with Grans (P70 cirrhosis/hemobilia) worked out at 88.42; in the experiment on Grans (P71 ac. pyelonephritis) it was 59.35.
Take `C[C@@H](O)[C@H](N)C(=O)N1CCC[C@H]1C(=O)Nc1ccc2c(c1)Oc1cc(NC(=O)[C@@H]3CCCN3C(=O)[C@@H](N)[C@@H](C)O)ccc1C21OC(=O)c2ccccc21` [TP]: the enzyme activity in the experiment on Lymphs (J4 11/21/91 acute leuk.) came to 2.30; in the experiment on Lymphs (J4 12/2/91 AL), 1.46; in the experiment on Lymphs (J4 12/3/91 acute leuk.), 1.18; in the experiment with Lymphs (J5 11/27/91 AML), 1.32; in the experiment with Lymphs (J19 11/27/91 CLL) it was 0.50; in the experiment with Lymphs (J22 12/2/91 AML), 0.99. The enzyme activity in the experiment with Lymphs (J22 12/9/91 AML) was 1.02; in the experiment with Lymphs (N99° normal), 1.86; with Lymphs (N191 normal), 2.14; with Lymphs (N192 normal), 2.12; in the experiment with Lymphs (N194 normal) it was 1.82; in the experiment on Lymphs (N195 normal), 1.90. The enzyme activity came out at 1.96 in the experiment with Lymphs (N197 normal); 2.39 in the experiment on Lymphs (N200 normal); 1.88 in the experiment on Lymphs (N201 normal); 2.49 in the experiment on Lymphs (N202 normal); 2.89 in the experiment with Lymphs (N206 normal); 1.90 in the experiment on Lymphs (P68 tachycardia). The enzyme activity in the experiment on Lymphs (P69 pancreatic CA) amounted to 2.26; in the experiment with Lymphs (P70 cirrhosis/hemobilia), 1.89; in the experiment on Lymphs (P71 ac. pyelonephritis) it was 1.86; in the experiment on Grans (J4 11/21/91 acute leuk.), 5.96; with Grans (J4 12/2/91 AL) it was 2.59; in the experiment with Grans (J4 12/3/91 acute leuk.), 1.93. Moreover, the enzyme activity with Grans (J5 11/27/91 AML) was found to be 2.72; in the experiment with Grans (J19 11/27/91 CLL), 2.95; with Grans (J22 12/2/91 AML), 2.33; with Grans (J22 12/9/91 AML), 2.51; in the experiment on Grans (N99° normal), 3.71; in the experiment on Grans (N191 normal), 4.73. Besides, the enzyme activity with Grans (N192 normal) stood at 4.62; with Grans (N193 normal) it was 4.96; in the experiment with Grans (N194 normal), 3.77; in the experiment with Grans (N195 normal) it was 3.74; in the experiment with Grans (N197 normal), 3.82; in the experiment with Grans (N200 normal), 4.69. Also, the enzyme activity with Grans (N201 normal) is recorded as 4.23; in the experiment with Grans (N202 normal), 4.44; with Grans (N206 normal), 5.98; in the experiment on Grans (P68 tachycardia), 4.63; in the experiment with Grans (P69 pancreatic CA) it was 4.21; in the experiment with Grans (P70 cirrhosis/hemobilia), 4.02. The compound also came in with an enzyme activity in the experiment on Grans (P71 ac. pyelonephritis) of 4.37.
Turning to `CC(C)[C@H](N)C(=O)N[C@@H](CO)C(=O)Nc1ccc2c(c1)Oc1cc(NC(=O)[C@H](CO)NC(=O)[C@@H](N)C(C)C)ccc1C21OC(=O)c2ccccc21` [VS, (H--L--Val--Ser)2 Rho 110-2TFA], the enzyme activity in the experiment on Lymphs (J4 11/21/91 acute leuk.) is recorded as 0.05; with Lymphs (J4 12/2/91 AL), 0.03; in the experiment with Lymphs (J4 12/3/91 acute leuk.) it was 0.04; in the experiment with Lymphs (J5 11/27/91 AML), 0.05; in the experiment with Lymphs (J19 11/27/91 CLL), 0.01; in the experiment with Lymphs (J22 12/2/91 AML), 0.01. For the same compound, the enzyme activity in the experiment with Lymphs (J22 12/9/91 AML) is on record as 0.04; in the experiment with Lymphs (N99° normal), 0.03; with Lymphs (N191 normal), 0.14; in the experiment on Lymphs (N192 normal), 0.08; with Lymphs (N193 normal), 0.09; in the experiment with Lymphs (N194 normal), 0.07. Further, the enzyme activity with Lymphs (N195 normal) was 0.06; with Lymphs (N197 normal) it was 0.11; in the experiment with Lymphs (N200 normal), 0.06; with Lymphs (N201 normal) it was 0.07; with Lymphs (N202 normal) it was 0.04; with Lymphs (N206 normal), 0.28. Besides, the enzyme activity in the experiment on Lymphs (P68 tachycardia) amounted to 0.05; with Lymphs (P69 pancreatic CA), 0.18; in the experiment on Lymphs (P70 cirrhosis/hemobilia), 0.04; in the experiment on Lymphs (P71 ac. pyelonephritis), 0.08; in the experiment on Grans (J4 11/21/91 acute leuk.), 0.37; in the experiment with Grans (J4 12/2/91 AL) it was 0.14. Also, the enzyme activity with Grans (J4 12/3/91 acute leuk.) was found to be 0.23; in the experiment with Grans (J5 11/27/91 AML), 1.13; in the experiment on Grans (J19 11/27/91 CLL), 2.83; with Grans (J22 12/2/91 AML) it was 0.22; in the experiment with Grans (J22 12/9/91 AML), 0.32; in the experiment on Grans (N99° normal) it was 0.14. Besides, the enzyme activity in the experiment with Grans (N191 normal) is recorded as 0.64; with Grans (N192 normal), 0.40; with Grans (N193 normal) it was 0.44; in the experiment with Grans (N194 normal) it was 0.29; in the experiment on Grans (N195 normal) it was 0.37; in the experiment on Grans (N197 normal) it was 0.58. In addition, the enzyme activity is listed as 0.24 with Grans (N200 normal); 0.32 with Grans (N201 normal); 0.24 in the experiment with Grans (N202 normal); 1.03 with Grans (N206 normal); 0.33 in the experiment on Grans (P68 tachycardia); 0.57 with Grans (P69 pancreatic CA). In addition, the enzyme activity in the experiment with Grans (P70 cirrhosis/hemobilia) was determined as 0.26; in the experiment on Grans (P71 ac. pyelonephritis), 0.69.
As to `CC(C)[C@H](N)C(=O)N[C@@H](CCCCN)C(=O)N[C@H](C(=O)N[C@@H](CCCCN)C(=O)Nc1ccc2c(c1)Oc1cc(NC(=O)[C@H](CCCCN)NC(=O)[C@@H](NC(=O)[C@H](CCCCN)NC(=O)[C@@H](N)C(C)C)C(C)C)ccc1C21OC(=O)c2ccccc21)C(C)C` [Val-Lys-Val-Lys, (H--L--Val--Lys--Val--Lys)2 Rho 110-6TFA] (I: H-VKVK / II: H-VKVK; linker I:C-II:C via Rhodamine110), in the experiment with enzyme, the “effect of DTE on sensitivity” value is “decreases the sensitivity”.
